Consider 23 compounds from ChEMBL document CHEMBL1159093, “Discovery and optimization of RO-85, a novel drug-like, potent, and selective P2X3 receptor antagonist” (Bioorg Med Chem Lett, 2010).

The target of one data set is T1, P2X purinoceptor 3 (Rattus norvegicus, UniProt P49654).
T1 sequence (P49654 whole entry): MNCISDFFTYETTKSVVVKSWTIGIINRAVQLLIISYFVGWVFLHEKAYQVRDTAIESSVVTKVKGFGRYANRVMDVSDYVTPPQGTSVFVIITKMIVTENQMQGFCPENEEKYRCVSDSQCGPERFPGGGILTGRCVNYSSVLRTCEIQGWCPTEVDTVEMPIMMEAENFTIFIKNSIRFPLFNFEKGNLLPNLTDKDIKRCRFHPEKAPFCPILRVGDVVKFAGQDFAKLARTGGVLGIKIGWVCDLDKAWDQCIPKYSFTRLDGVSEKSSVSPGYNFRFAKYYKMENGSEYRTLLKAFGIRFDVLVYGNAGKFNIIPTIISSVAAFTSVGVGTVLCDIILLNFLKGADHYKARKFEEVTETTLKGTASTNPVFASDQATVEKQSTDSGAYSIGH
The experiment in a line: Antagonist activity at rat P2X3 receptor expressed in CHO cells. Type of data set: functional, cell-based.

The target of data set [1] is T2, P2X2/P2X3 heterotrimeric receptor (Homo sapiens, UniProt P56373+Q9UBL9).
T2 sequence (Q9UBL9 whole entry): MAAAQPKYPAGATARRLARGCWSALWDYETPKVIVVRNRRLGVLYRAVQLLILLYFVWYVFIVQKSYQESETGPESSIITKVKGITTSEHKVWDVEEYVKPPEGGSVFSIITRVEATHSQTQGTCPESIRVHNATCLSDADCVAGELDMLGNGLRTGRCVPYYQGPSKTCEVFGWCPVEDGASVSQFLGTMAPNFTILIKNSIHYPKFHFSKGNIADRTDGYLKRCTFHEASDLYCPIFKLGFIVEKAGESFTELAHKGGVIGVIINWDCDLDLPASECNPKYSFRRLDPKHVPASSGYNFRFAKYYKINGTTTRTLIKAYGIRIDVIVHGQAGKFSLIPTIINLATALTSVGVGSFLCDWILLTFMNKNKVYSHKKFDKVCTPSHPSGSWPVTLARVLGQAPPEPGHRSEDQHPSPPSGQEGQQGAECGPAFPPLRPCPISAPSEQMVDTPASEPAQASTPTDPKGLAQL
T2 sequence (P56373 whole entry): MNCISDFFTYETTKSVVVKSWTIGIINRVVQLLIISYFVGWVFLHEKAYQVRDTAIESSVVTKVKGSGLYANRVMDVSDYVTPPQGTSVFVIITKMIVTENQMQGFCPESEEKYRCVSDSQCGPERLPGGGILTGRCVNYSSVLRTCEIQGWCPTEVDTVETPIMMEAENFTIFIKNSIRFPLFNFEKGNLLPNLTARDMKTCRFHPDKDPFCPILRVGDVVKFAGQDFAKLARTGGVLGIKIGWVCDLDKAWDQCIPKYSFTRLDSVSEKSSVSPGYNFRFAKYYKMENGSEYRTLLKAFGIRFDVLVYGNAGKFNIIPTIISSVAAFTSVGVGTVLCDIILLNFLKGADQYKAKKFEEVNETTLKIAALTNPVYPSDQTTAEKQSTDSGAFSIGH
The experiment in a line: Antagonist activity at human P2X2/P2X3 receptor expressed in human 1321N1C cells. Type of data set: functional, cell-based.

Data set [2] can be described thus: Protein binding in rat plasma. Type of data set: ADME, cell-free. As to conditions: read-out: PPB (converted).
Another data set addresses Cytochrome P450 3A4 (Homo sapiens, UniProt P08684). Nature of the data set: Inhibition of CYP3A4. It counts as ADME.
The target of a further data set is Cytochrome P450 2D6 (Homo sapiens, UniProt P10635). Nature of the data set: Inhibition of CYP2D6. It counts as ADME.
Sequence of Cytochrome P450 2D6 (P10635 whole entry): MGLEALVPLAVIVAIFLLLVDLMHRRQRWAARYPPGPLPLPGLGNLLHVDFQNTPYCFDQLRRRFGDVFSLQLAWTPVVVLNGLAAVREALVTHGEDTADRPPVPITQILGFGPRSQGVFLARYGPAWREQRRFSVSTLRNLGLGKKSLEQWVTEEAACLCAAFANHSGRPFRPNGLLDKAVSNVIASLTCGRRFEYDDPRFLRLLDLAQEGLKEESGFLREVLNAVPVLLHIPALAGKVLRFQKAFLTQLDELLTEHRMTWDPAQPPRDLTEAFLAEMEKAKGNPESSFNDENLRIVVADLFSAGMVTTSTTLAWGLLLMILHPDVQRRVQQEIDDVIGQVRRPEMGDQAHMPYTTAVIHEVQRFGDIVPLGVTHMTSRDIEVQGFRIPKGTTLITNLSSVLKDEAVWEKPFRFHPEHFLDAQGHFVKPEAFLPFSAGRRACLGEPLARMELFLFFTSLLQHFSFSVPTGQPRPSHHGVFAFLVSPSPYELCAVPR
A further data set has as its target P2X purinoceptor 1 (Homo sapiens, UniProt P51575). The experiment in a line: Antagonist activity at P2X1 receptor. Type of data set: functional.
The target of another data set is P2X purinoceptor 2 (Homo sapiens, UniProt Q9UBL9). The experiment in a line: Antagonist activity at P2X2 receptor. Type of data set: functional.
Another data set addresses P2X purinoceptor 4 (Homo sapiens, UniProt Q99571). Nature of the data set: Antagonist activity at P2X4 receptor. Type of data set: functional.
A further data set has as its target P2X purinoceptor 5 (Homo sapiens, UniProt Q93086). The experiment in a line: Antagonist activity at P2X5 receptor. It counts as functional.
Another data set concerns the target P2X purinoceptor 6 (Homo sapiens, UniProt O15547). The experiment in a line: Antagonist activity at P2X6 receptor. It counts as functional.
The next data set addresses P2X purinoceptor 7 (Homo sapiens, UniProt Q99572). The experiment in a line: Antagonist activity at P2X7 receptor. Type of data set: functional.

Sequence of P2X purinoceptor 7 (Q99572 whole entry): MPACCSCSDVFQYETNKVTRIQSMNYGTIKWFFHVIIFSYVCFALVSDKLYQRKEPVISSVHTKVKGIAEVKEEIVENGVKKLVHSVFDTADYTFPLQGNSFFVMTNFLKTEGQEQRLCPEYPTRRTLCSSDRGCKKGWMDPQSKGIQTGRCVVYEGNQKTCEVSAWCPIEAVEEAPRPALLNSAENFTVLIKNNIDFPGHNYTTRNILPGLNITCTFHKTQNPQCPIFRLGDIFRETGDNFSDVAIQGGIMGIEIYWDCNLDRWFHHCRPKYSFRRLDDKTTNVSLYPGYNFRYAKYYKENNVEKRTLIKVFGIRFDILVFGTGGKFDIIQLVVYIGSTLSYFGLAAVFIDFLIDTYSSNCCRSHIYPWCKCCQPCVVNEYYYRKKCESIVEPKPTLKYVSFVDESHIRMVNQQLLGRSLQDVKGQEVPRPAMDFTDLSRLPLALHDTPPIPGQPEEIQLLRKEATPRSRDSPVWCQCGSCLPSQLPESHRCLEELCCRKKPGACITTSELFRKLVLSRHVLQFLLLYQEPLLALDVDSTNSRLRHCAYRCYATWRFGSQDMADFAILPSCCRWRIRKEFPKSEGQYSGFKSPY
Sequence of P2X purinoceptor 4 (Q99571 whole entry): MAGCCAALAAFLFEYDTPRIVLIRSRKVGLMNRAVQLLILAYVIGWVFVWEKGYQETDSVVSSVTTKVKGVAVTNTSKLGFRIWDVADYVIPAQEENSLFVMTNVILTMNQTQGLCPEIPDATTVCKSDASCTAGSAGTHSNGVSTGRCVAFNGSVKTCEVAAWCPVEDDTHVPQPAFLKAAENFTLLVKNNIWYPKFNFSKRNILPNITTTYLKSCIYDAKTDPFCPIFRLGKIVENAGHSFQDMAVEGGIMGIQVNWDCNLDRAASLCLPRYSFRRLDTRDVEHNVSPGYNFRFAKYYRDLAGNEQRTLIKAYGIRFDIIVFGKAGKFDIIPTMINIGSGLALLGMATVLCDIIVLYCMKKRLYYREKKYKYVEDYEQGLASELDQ
Sequence of P2X purinoceptor 6 (O15547 whole entry): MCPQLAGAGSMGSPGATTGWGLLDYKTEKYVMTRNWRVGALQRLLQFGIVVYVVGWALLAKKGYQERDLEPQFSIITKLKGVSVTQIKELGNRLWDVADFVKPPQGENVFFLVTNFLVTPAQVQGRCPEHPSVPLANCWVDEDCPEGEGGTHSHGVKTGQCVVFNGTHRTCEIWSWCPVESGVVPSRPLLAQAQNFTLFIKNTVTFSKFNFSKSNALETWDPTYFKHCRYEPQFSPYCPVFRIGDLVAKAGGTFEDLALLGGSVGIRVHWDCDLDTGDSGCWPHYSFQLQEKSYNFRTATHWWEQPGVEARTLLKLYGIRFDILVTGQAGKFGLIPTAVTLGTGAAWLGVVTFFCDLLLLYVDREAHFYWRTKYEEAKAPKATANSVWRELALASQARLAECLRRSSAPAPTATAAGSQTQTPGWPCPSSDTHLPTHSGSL
Sequence of P2X purinoceptor 5 (Q93086 whole entry): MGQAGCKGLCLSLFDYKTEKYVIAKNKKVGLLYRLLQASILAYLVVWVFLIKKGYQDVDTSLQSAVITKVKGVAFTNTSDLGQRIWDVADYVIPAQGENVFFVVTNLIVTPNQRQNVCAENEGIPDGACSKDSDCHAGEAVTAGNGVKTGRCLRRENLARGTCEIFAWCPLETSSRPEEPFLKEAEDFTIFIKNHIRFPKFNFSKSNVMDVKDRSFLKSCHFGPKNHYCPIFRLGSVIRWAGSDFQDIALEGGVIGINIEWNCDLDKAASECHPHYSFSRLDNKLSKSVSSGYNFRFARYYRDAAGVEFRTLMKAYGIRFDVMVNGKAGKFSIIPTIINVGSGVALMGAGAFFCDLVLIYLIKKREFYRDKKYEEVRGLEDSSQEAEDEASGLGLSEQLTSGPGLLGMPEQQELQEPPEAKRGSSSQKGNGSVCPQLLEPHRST
Sequence of Cytochrome P450 3A4 (P08684 whole entry): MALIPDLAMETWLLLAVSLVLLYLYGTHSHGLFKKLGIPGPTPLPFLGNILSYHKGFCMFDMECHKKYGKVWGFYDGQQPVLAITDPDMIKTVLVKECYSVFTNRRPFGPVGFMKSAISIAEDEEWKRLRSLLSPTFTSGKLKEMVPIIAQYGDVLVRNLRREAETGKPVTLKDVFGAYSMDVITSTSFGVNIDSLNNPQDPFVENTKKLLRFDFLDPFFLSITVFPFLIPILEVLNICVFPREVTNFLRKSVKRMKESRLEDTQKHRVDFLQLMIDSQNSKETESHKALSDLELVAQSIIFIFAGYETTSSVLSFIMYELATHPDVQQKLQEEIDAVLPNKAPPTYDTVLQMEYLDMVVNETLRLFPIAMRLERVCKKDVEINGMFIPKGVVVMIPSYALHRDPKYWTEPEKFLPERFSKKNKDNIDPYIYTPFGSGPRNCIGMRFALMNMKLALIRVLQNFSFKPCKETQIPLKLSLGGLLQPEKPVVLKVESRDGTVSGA
Sequence of P2X purinoceptor 1 (P51575 whole entry): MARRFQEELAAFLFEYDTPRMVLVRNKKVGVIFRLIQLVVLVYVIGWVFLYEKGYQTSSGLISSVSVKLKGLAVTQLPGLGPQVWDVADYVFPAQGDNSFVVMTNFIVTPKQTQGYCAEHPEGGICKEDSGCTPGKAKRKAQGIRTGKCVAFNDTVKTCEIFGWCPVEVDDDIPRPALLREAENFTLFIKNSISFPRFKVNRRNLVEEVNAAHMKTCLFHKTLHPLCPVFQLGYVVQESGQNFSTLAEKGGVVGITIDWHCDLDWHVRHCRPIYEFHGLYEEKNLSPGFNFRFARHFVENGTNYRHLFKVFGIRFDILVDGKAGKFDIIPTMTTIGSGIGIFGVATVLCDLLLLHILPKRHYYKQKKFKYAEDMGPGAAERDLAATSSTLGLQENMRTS

Take `CCCc1nc(-c2ccccc2)oc1C(=O)NC(C)CN1CCN(c2ncccn2)CC1` (stereo not given): the IC50 (commonly the concentration that inhibits the measured activity by half) on P2X purinoceptor 3 was 0.251 µM; in [1], over 10 µM; against Cytochrome P450 3A4 it was under 10 µM; against Cytochrome P450 2D6, under 10 µM; against P2X purinoceptor 1, over 10 µM; on P2X purinoceptor 2, over 10 µM. Further, the IC50 at P2X purinoceptor 4, at P2X purinoceptor 5, against P2X purinoceptor 6 and on P2X purinoceptor 7 was over 10 µM throughout. In data set [2], the fraction unbound is under 0.01.

Regarding `CCCc1nc(-c2ccc(F)cc2)oc1C(=O)N[C@H](C)CN1CCN(c2ccccn2)CC1`, the values for the IC50 (against P2X purinoceptor 3; in data set [1]) were 1.58 µM and over 10 µM, respectively.

For `CC(CN1CCN(c2ncccn2)CC1)NC(=O)c1cc(-c2ccccc2)oc1-c1ccccc1` (stereo not given), the values for the concentration for half-maximal inhibition (IC50) (on P2X purinoceptor 3; in [1]) were 2 µM and over 10 µM, respectively.

In the case of `CC(CN1CCN(c2ncccn2)CC1)NC(=O)c1sc(-c2ccccc2)nc1-c1ccccc1` (stereo not given), the IC50 (at P2X purinoceptor 3; in data set [1]) was over 10 µM in each case.

On to `CC(CN1CCN(c2ncccn2)CC1)NC(=O)c1cc(-c2ccc(F)cc2)cc(-c2ccc(F)cc2)c1` (stereo not given), for which the IC50 at P2X purinoceptor 3 is 0.398 µM; in data set [1], over 10 µM.

Take `Cc1c(C(=O)NC(C)CN2CCN(c3ncccn3)CC2)c(-c2ccccc2)nn1-c1ccccc1` (stereo not given): the IC50 (against P2X purinoceptor 3; in data set [1]) was over 10 µM throughout.

Take `CC(CN1CCN(c2ncccn2)CC1)NC(=O)c1nc(-c2ccccc2)cc(-c2ccccc2)n1` (stereo not given): the IC50 against P2X purinoceptor 3 was 5.01 µM; in [1], over 10 µM.

Turning to `CC(CN1CCN(c2ncccn2)CC1)NC(=O)c1cc2c(-c3ccccc3)nn(C)c2s1` (stereo not given), the IC50 was 0.2 µM against P2X purinoceptor 3 and over 10 µM in data set [1].

Turning to `Cc1c(C(=O)NC(C)CN2CCN(c3ncccn3)CC2)cc(-c2ccccc2)n1-c1ccccc1` (stereo not given), the results for the IC50 (against P2X purinoceptor 3; in data set [1]) were 2 µM and over 10 µM, respectively.

In the case of `CCCc1nc(-c2ccc(F)cc2)oc1C(=O)N[C@H](C)CN1CCN(c2ncccn2)CC1`, the IC50 on P2X purinoceptor 3 was 0.0501 µM; in [1] it was over 10 µM.

As to `CC(CN1CCN(c2ncccn2)CC1)NC(=O)c1cc(-c2ccccc2)n(-c2ccccc2)n1` (stereo not given), the IC50 was 1.26 µM at P2X purinoceptor 3 and over 10 µM in data set [1].

As to `CC(CN1CCN(c2ncccn2)CC1)NC(=O)c1cc(-c2ccccc2)nn1-c1ccccc1` (stereo not given), the 50% inhibitory concentration (IC50) is 1 µM on P2X purinoceptor 3 and over 10 µM in data set [1].

In the case of `CC(CN1CCN(c2ncccn2)CC1)NC(=O)c1cc(-c2ccccc2)nc(-c2ccccc2)c1` (stereo not given), the results for the IC50 (against P2X purinoceptor 3; in data set [1]) were 1.26 µM and over 10 µM, respectively.

With `CCCc1nc(-c2ccc(F)cc2)oc1C(=O)N[C@H](C)CN1CCN(c2ccncn2)CC1`, the values for the IC50 (against P2X purinoceptor 3; in [1]) were 1.26 µM and over 10 µM, respectively.

Take `CCCc1nc(-c2ccc(F)cc2)oc1C(=O)N[C@H](C)CN1CCN(C(=O)OCC)CC1`: the IC50 (at P2X purinoceptor 3; in data set [1]) was over 10 µM throughout.

In the case of `Cc1nc(-c2ccccc2)oc1C(=O)NC(C)CN1CCN(c2ncccn2)CC1` (stereo not given), the IC50 against P2X purinoceptor 3 was 5.01 µM; in data set [1], over 10 µM.

Regarding `CC(CN1CCN(c2ncccn2)CC1)NC(=O)c1oc(-c2ccccc2)cc1-c1ccccc1` (stereo not given), the IC50 on P2X purinoceptor 3 was 0.631 µM; in data set [1], over 10 µM.

As to `CCCc1nc(-c2ccc(F)cc2)oc1C(=O)N[C@H](C)CN1CCN(C(C)=O)CC1`, the figures for the IC50 (at P2X purinoceptor 3; in data set [1]) were 0.398 µM and over 10 µM, respectively.

As to `CC(CN1CCN(c2ncccn2)CC1)NC(=O)c1cc(Br)cc(-c2ccc(F)cc2)c1` (stereo not given), the IC50 was 0.501 µM against P2X purinoceptor 3 and over 10 µM in data set [1].

As for `CC(CN1CCN(c2ncccn2)CC1)NC(=O)c1nc(-c2ccccc2)oc1-c1ccccc1` (stereo not given), the IC50 against P2X purinoceptor 3 is 3.98 µM; in [1], over 10 µM.

In the case of `CCCc1nc(-c2ccc(F)cc2)oc1C(=O)N[C@H](C)CN1CCN(C(=O)c2ccco2)CC1`, the IC50 is 2.51 µM against P2X purinoceptor 3 and over 10 µM in data set [1].

Consider `CCCc1nc(-c2ccc(F)cc2)oc1C(=O)NC(C)CN1CCN(c2nccs2)CC1` (racemic), for which the IC50 against P2X purinoceptor 3 is 0.631 µM; in data set [1], over 10 µM.

For `CCCc1cc(C(=O)NC(C)CN2CCN(c3ncccn3)CC2)cc(-c2ccc(F)cc2)c1` (stereo not given), the IC50 was 0.501 µM at P2X purinoceptor 3 and over 10 µM in data set [1].
